The source of these data is patent US4156724A, “N-acylamino-alpha-arylacetamido cephalosporins and antibacterial compositions and methods containing them” (Sumitomo Chemical Company, Limited, priority 1974, dated 1979).

Converted amounts (≈) assume the structure as drawn.

Common to all, as to format: cell-based
In test [1] the test system is Escherichia coli NIHJ. The test can be described thus: Minimum Inhibitory Concentration, Escherichia coli NIHJ. To be noted: Escherichia coli NIHJ; for MIC: read-out: Minimum Inhibitory Concentration. On the procedure: (§1) anti-microbial activity tests were carried out on the compounds obtained in the Examples.
For test [2], the system named is Staphylococcus aureus FS 289. Put plainly: Minimum Inhibitory Concentration, Staphylococcus aureus FS 289. To be noted: Staphylococcus aureus FS 289, strain resistant to penicillin; for MIC: FS289, read-out: Minimum Inhibitory Concentration. On the procedure:
as §1
*Staphylococcus aureus FS 289: strain resistant to penicillin

The subject of test [3] is Enterobacter aerogeneus No. 75. The test can be described thus: Minimum Inhibitory Concentration, Enterobacter aerogeneus No. 75. Particulars: Enterobacter aerogeneus No. 75; for MIC: read-out: Minimum Inhibitory Concentration. On the procedure:
as §1

The test system of test [4] is Klebsiella pneumoniae 602. The test can be described thus: Minimum Inhibitory Concentration, Klebsiella pneumoniae 602. To be noted: for MIC: Klebsiella pneumoniae, 602, Klebsiella pneumoniae 602, read-out: Minimum Inhibitory Concentration; for Minimum Inhibitory Concentration: Klebsiella pneumoniae 602. On the procedure: as §1
Test [5] relates to Pseudomonas aeruginosa 104. The test can be described thus: Minimum Inhibitory Concentration, Pseudomonas aeruginosa 104. To be noted: Pseudomonas aeruginosa 104; for MIC: read-out: Minimum Inhibitory Concentration. On the procedure:
as §1

Test [6] concerns Serratia No. 72. The test can be described thus: Minimum Inhibitory Concentration, Serratia No. 72. The method, then:
as §1

For test [7], the system named is Proteus vulgaris HX 19. Put plainly: Minimum Inhibitory Concentration, Proteus vulgaris HX 19. To be noted: Proteus vulgaris HX 19; for MIC: HX19, read-out: Minimum Inhibitory Concentration. On the procedure: as §1
Test [8] relates to Staphylococcus aureus 209 P. The test can be described thus: Minimum Inhibitory Concentration, Staphylococcus aureus 209 P. Particulars: Staphylococcus aureus 209 P; for MIC: read-out: Minimum Inhibitory Concentration. The method, then: as §1

In the case of `Cn1nnnc1SCC1=C(C(=O)O)N2C(=O)C(NC(=O)[C@H](NC(=O)c3cnccc3O)c3ccc(O)cc3)C2SC1` (stereo partly drawn) [Example 126, 7-[D-α-(4-Hydroxypyridine-3-carbonamido)-α-p-hydroxyphenylacetamido]-3-(1-methyltetrazol-5-yl)thiomethyl-3-cephem-4-carboxylic acid], the MIC came to 6.25 mg/L (≈ 10.4 µM) in test [1]; 6.25 mg/L (≈ 10.4 µM) in test [2]; 12.5 mg/L (≈ 20.9 µM) in test [3]; 12.5 mg/L (≈ 20.9 µM) in test [4]; 6.25 mg/L (≈ 10.4 µM) in test [5]; 100 mg/L (≈ 167 µM) in test [6]. For the same compound, the MIC in test [7] was 0.2 mg/L (≈ 0.334 µM); in test [8], 0.39 mg/L (≈ 0.651 µM).

As to `Cc1nnc(SCC2=C(C(=O)O)N3C(=O)C(NC(=O)[C@H](NC(=O)c4ccnnc4O)c4ccc(O)cc4)C3SC2)s1` (stereo partly shown) [Example 127], the MIC in test [1] turned out to be 6.25 mg/L (≈ 10.2 µM); in test [2], 6.25 mg/L (≈ 10.2 µM); in test [3], 12.5 mg/L (≈ 20.3 µM); in test [4] it was 6.25 mg/L (≈ 10.2 µM); in test [5], 6.25 mg/L (≈ 10.2 µM); in test [6], 50 mg/L (≈ 81.2 µM). Further, the figures for the MIC in test [7] and in test [8] were 0.2 mg/L (≈ 0.325 µM) and 0.39 mg/L (≈ 0.633 µM), respectively.

In the case of `Cn1nnnc1SCC1=C(C(=O)O)N2C(=O)C(NC(=O)[C@H](NC(=O)c3ccnnc3O)c3ccc(O)cc3)C2SC1` (stereo partly shown) [Example 128], the MIC in test [1] is 6.25 mg/L (≈ 10.4 µM); in test [2], 6.25 mg/L (≈ 10.4 µM); in test [3] it was 12.5 mg/L (≈ 20.8 µM); in test [4], 6.25 mg/L (≈ 10.4 µM); in test [5], 6.25 mg/L (≈ 10.4 µM); in test [6], 50 mg/L (≈ 83.4 µM). The MIC in test [7] and in test [8] was 0.39 mg/L (≈ 0.65 µM) each time.

Take `Cc1nnc(SCC2=C(C(=O)O)N3C(=O)C(NC(=O)[C@H](NC(=O)c4cnc5cccnc5c4O)c4ccc(O)cc4)C3SC2)s1` (stereo partly shown) [Example 129]: the MIC in test [1] is 1.56 mg/L (≈ 2.34 µM); in test [2] it was 3.13 mg/L (≈ 4.7 µM); in test [3], 3.13 mg/L (≈ 4.7 µM); in test [4], 1.56 mg/L (≈ 2.34 µM); in test [5], 3.13 mg/L (≈ 4.7 µM); in test [6] it was 12.5 mg/L (≈ 18.8 µM). In addition, the results for the MIC in test [7] and in test [8] were 0.1 mg/L (≈ 0.15 µM) and 0.78 mg/L (≈ 1.17 µM), respectively.

`O=C(O)C1=C(CSc2nncs2)CSC2C(NC(=O)[C@H](NC(=O)c3cnc4cccnc4c3O)c3ccc(O)cc3)C(=O)N12` (stereo partly shown) [Example 130]: the MIC stood at 1.56 mg/L (≈ 2.39 µM) in test [1]; 3.13 mg/L (≈ 4.8 µM) in test [2]; 3.13 mg/L (≈ 4.8 µM) in test [3]; 1.56 mg/L (≈ 2.39 µM) in test [4]; 3.13 mg/L (≈ 4.8 µM) in test [5]; 12.5 mg/L (≈ 19.2 µM) in test [6]. For the same compound, the MIC in test [7] came to 0.1 mg/L (≈ 0.153 µM); in test [8], 0.78 mg/L (≈ 1.2 µM).

With `Cn1nnnc1SCC1=C(C(=O)O)N2C(=O)C(NC(=O)[C@H](NC(=O)c3cnc4cccnc4c3O)c3ccc(O)cc3)C2SC1` (stereo partly shown) [Example 131], the MIC is 1.56 mg/L (≈ 2.4 µM) in test [1]; 3.13 mg/L (≈ 4.82 µM) in test [2]; 3.13 mg/L (≈ 4.82 µM) in test [3]; 0.78 mg/L (≈ 1.2 µM) in test [4]; 3.13 mg/L (≈ 4.82 µM) in test [5]; 12.5 mg/L (≈ 19.2 µM) in test [6]. The MIC turned out to be 0.1 mg/L (≈ 0.154 µM) in test [7] and 0.78 mg/L (≈ 1.2 µM) in test [8].

Take `Cn1nnnc1SCC1=C(C(=O)O)N2C(=O)C(NC(=O)[C@H](NC(=O)c3cnc4cccnc4c3O)c3ccc(O)c(Cl)c3)C2SC1` (stereo partly shown) [Example 132]: the MIC in test [1] stood at 3.13 mg/L (≈ 4.58 µM); in test [2], 3.13 mg/L (≈ 4.58 µM); in test [3] it was 3.13 mg/L (≈ 4.58 µM); in test [4], 1.56 mg/L (≈ 2.28 µM); in test [5], 6.25 mg/L (≈ 9.14 µM); in test [6] it was 25 mg/L (≈ 36.5 µM). Also, the MIC in test [7] was found to be 0.1 mg/L (≈ 0.146 µM); in test [8], 0.78 mg/L (≈ 1.14 µM).

Turning to `Cn1nnc(SCC2=C(C(=O)O)N3C(=O)C(NC(=O)[C@H](NC(=O)c4cnc5cccnc5c4O)c4ccc(O)cc4)C3SC2)n1` (stereo partly shown) [Example 133], the MIC stood at 3.13 mg/L (≈ 4.82 µM) in test [1]; 3.13 mg/L (≈ 4.82 µM) in test [2]; 3.13 mg/L (≈ 4.82 µM) in test [3]; 1.56 mg/L (≈ 2.4 µM) in test [4]; 3.13 mg/L (≈ 4.82 µM) in test [5]; 25 mg/L (≈ 38.5 µM) in test [6]. Moreover, the MIC in test [7] amounted to 0.1 mg/L (≈ 0.154 µM); in test [8], 0.78 mg/L (≈ 1.2 µM).

Turning to `O=C(O)C1=C(CSc2cnn[nH]2)CSC2C(NC(=O)[C@H](NC(=O)c3cnc4cccnc4c3O)c3ccc(O)cc3)C(=O)N12` (stereo partly shown) [Example 134], the MIC was determined as 3.13 mg/L (≈ 4.93 µM) in test [1]; 3.13 mg/L (≈ 4.93 µM) in test [2]; 3.13 mg/L (≈ 4.93 µM) in test [3]; 1.56 mg/L (≈ 2.46 µM) in test [4]; 3.13 mg/L (≈ 4.93 µM) in test [5]; 25 mg/L (≈ 39.4 µM) in test [6]. Also, the MIC is 0.1 mg/L (≈ 0.158 µM) in test [7] and 0.78 mg/L (≈ 1.23 µM) in test [8].

For `CC(=O)OCC1=C(C(=O)[O-])N2C(=O)C(NC(=O)C(NC(=O)c3cnc4nc(C)cnc4c3O)c3ccc(O)cc3)C2SC1.[Na+]` (stereo not shown) [Example 136], the “Minimum Inhibitory Concentration” value in test [1] amounted to 3.13 µg/mL; in test [2], 6.25 µg/mL; in test [3] it was 6.25 µg/mL; in test [4] it was 3.13 µg/mL; in test [5] it was 6.25 µg/mL; in test [6], 100 µg/mL. Moreover, the “Minimum Inhibitory Concentration” value in test [7] and in test [8] was 0.78 µg/mL throughout.

`CSc1ncc2c(O)c(C(=O)NC(C(=O)NC3C(=O)N4C(C(=O)[O-])=C(COC(C)=O)CSC34)c3ccc(O)cc3)cnc2n1.[Na+]` (stereo not shown) [Example 137]: the “Minimum Inhibitory Concentration” value stood at 12.5 µg/mL in test [1]; 12.5 µg/mL in test [2]; 50 µg/mL in test [3]; 12.5 µg/mL in test [4]; 12.5 µg/mL in test [5]; 100 µg/mL in test [6]. Also, the “Minimum Inhibitory Concentration” value in test [7] and in test [8] was 1.56 µg/mL in each case.

Take `CC(=O)OCC1=C(C(=O)[O-])N2C(=O)C(NC(=O)C(NC(=O)c3cnc4cccnc4c3O)c3cccc(O)c3)C2SC1.[Na+]` (stereo not shown) [Example 138]: the “Minimum Inhibitory Concentration” value in test [1] is 3.13 µg/mL; in test [2], 6.25 µg/mL; in test [3] it was 6.25 µg/mL; in test [4] it was 1.56 µg/mL; in test [5] it was 6.25 µg/mL; in test [6], 50 µg/mL. In addition, the “Minimum Inhibitory Concentration” value in test [7] and in test [8] was 0.78 µg/mL each time.

As to `CC(=O)OCC1=C(C(=O)[O-])N2C(=O)C(NC(=O)C(NC(=O)c3cnc4ncncc4c3O)c3ccc(O)cc3)C2SC1.[Na+]` (stereo not shown) [Example 139], the “Minimum Inhibitory Concentration” value in test [1] came to 12.5 µg/mL; in test [2], 12.5 µg/mL; in test [3], 50 µg/mL; in test [4] it was 6.25 µg/mL; in test [5], 12.5 µg/mL; in test [6], 50 µg/mL. Also, the “Minimum Inhibitory Concentration” value in test [7] came out at 3.13 µg/mL; in test [8], 1.56 µg/mL.

For `CSc1cnc2c(O)c(C(=O)NC(C(=O)NC3C(=O)N4C(C(=O)[O-])=C(COC(C)=O)CSC34)c3cccc(O)c3)cnc2n1.[Na+]` (stereo not shown) [Example 140], the “Minimum Inhibitory Concentration” value turned out to be 3.13 µg/mL in test [1]; 6.25 µg/mL in test [2]; 12.5 µg/mL in test [3]; 6.25 µg/mL in test [4]; 6.25 µg/mL in test [5]; 50 µg/mL in test [6]. Further, the “Minimum Inhibitory Concentration” value in test [7] turned out to be 1.56 µg/mL; in test [8] it was 0.78 µg/mL.

Consider `CC(=O)OCC1=C(C(=O)[O-])N2C(=O)C(NC(=O)C(NC(=O)c3cnc4cncnc4c3O)c3ccc(O)cc3)C2SC1.[Na+]` (stereo not shown) [Example 141], for which the “Minimum Inhibitory Concentration” value in test [1] amounted to 6.25 µg/mL; in test [2] it was 6.25 µg/mL; in test [3], 12.5 µg/mL; in test [4] it was 6.25 µg/mL; in test [5], 6.25 µg/mL; in test [6], 50 µg/mL. Besides, the “Minimum Inhibitory Concentration” value in test [7] and in test [8] was 0.78 µg/mL in each case.

As for `CC(=O)OCC1=C(C(=O)[O-])N2C(=O)C(NC(=O)C(NC(=O)c3cnc4cccnc4c3O)c3ccc(O)c(O)c3)C2SC1.[Na+]` (stereo not shown) [Example 142], the “Minimum Inhibitory Concentration” value was determined as 3.13 µg/mL in test [1]; 6.25 µg/mL in test [2]; 6.25 µg/mL in test [3]; 3.13 µg/mL in test [4]; 6.25 µg/mL in test [5]; 50 µg/mL in test [6]. Further, the “Minimum Inhibitory Concentration” value in test [7] was 0.78 µg/mL; in test [8], 1.56 µg/mL.

For `COc1cc(C(NC(=O)c2cnc3cccnc3c2O)C(=O)NC2C(=O)N3C(C(=O)[O-])=C(COC(C)=O)CSC23)ccc1O.[Na+]` (stereo not shown) [Example 143], the “Minimum Inhibitory Concentration” value amounted to 6.25 µg/mL in test [1]; 12.5 µg/mL in test [2]; 12.5 µg/mL in test [3]; 3.13 µg/mL in test [4]; 6.25 µg/mL in test [5]; 100 µg/mL in test [6]. The results for the “Minimum Inhibitory Concentration” value in test [7] and in test [8] were 0.78 µg/mL and 3.13 µg/mL, respectively.
